# Source: patent publication US12187742B2 (XRAD Therapeutics, Inc., priority 2018, dated 2025)
# Counter-ions that a name gives are not always drawn.
# Molecular target: ATM (Homo sapiens (Human), UniProt Q13315)
# Assay: ATM in Cell Western Assay (pKAP1 in etoposide-treated MCF-7 cells)
# Assay type: cell-based
# Conditions: MCF-7 cells, etoposide 100 μM, 1 hr, pKAP1 readout
# Method: Assay of Compounds ATM and DNA-PK Inhibition
# ATM in Cell Western Assay:
# Next day, add corresponding concentration of compounds using pin tool (Echo 550), the final top concentration is 1 μM, 3-fold series dilution, total 10 doses. Then add etoposide (Sigma, #E1383) to a final concentration of 100 μM. Incubate at 37° C. for 1 hr. Fix cells by adding 25 μL of fixing solution (8% paraformaldehyde) for 20 minutes at ambient temperature. Permeabilize cells for 5 washes with 1×PBS (phosphate buffered saline) containing 0.1% Triton X-100; each wash is for 5 minutes. […] The next day, wash the plate 5 times with 1×PBST (1×PBS containing 0.1% Tween-20). […] Wash the cells for 5 times with 1×PBST (1×PBS containing 0.1% Tween-20) at ambient temperature, using gentle shaking in the dark. After the last wash
# remove wash solution, turn plate upside down onto a thin paper towel and centrifuge at 1000 rpm for 1 min to absorb all wash buffer. Clean the bottom of plate with moist lint free paper. Scan plate immediately using ODYSSEY CLx (LI-COR) for the best results.
# ATM, sequence (Q13315 whole entry): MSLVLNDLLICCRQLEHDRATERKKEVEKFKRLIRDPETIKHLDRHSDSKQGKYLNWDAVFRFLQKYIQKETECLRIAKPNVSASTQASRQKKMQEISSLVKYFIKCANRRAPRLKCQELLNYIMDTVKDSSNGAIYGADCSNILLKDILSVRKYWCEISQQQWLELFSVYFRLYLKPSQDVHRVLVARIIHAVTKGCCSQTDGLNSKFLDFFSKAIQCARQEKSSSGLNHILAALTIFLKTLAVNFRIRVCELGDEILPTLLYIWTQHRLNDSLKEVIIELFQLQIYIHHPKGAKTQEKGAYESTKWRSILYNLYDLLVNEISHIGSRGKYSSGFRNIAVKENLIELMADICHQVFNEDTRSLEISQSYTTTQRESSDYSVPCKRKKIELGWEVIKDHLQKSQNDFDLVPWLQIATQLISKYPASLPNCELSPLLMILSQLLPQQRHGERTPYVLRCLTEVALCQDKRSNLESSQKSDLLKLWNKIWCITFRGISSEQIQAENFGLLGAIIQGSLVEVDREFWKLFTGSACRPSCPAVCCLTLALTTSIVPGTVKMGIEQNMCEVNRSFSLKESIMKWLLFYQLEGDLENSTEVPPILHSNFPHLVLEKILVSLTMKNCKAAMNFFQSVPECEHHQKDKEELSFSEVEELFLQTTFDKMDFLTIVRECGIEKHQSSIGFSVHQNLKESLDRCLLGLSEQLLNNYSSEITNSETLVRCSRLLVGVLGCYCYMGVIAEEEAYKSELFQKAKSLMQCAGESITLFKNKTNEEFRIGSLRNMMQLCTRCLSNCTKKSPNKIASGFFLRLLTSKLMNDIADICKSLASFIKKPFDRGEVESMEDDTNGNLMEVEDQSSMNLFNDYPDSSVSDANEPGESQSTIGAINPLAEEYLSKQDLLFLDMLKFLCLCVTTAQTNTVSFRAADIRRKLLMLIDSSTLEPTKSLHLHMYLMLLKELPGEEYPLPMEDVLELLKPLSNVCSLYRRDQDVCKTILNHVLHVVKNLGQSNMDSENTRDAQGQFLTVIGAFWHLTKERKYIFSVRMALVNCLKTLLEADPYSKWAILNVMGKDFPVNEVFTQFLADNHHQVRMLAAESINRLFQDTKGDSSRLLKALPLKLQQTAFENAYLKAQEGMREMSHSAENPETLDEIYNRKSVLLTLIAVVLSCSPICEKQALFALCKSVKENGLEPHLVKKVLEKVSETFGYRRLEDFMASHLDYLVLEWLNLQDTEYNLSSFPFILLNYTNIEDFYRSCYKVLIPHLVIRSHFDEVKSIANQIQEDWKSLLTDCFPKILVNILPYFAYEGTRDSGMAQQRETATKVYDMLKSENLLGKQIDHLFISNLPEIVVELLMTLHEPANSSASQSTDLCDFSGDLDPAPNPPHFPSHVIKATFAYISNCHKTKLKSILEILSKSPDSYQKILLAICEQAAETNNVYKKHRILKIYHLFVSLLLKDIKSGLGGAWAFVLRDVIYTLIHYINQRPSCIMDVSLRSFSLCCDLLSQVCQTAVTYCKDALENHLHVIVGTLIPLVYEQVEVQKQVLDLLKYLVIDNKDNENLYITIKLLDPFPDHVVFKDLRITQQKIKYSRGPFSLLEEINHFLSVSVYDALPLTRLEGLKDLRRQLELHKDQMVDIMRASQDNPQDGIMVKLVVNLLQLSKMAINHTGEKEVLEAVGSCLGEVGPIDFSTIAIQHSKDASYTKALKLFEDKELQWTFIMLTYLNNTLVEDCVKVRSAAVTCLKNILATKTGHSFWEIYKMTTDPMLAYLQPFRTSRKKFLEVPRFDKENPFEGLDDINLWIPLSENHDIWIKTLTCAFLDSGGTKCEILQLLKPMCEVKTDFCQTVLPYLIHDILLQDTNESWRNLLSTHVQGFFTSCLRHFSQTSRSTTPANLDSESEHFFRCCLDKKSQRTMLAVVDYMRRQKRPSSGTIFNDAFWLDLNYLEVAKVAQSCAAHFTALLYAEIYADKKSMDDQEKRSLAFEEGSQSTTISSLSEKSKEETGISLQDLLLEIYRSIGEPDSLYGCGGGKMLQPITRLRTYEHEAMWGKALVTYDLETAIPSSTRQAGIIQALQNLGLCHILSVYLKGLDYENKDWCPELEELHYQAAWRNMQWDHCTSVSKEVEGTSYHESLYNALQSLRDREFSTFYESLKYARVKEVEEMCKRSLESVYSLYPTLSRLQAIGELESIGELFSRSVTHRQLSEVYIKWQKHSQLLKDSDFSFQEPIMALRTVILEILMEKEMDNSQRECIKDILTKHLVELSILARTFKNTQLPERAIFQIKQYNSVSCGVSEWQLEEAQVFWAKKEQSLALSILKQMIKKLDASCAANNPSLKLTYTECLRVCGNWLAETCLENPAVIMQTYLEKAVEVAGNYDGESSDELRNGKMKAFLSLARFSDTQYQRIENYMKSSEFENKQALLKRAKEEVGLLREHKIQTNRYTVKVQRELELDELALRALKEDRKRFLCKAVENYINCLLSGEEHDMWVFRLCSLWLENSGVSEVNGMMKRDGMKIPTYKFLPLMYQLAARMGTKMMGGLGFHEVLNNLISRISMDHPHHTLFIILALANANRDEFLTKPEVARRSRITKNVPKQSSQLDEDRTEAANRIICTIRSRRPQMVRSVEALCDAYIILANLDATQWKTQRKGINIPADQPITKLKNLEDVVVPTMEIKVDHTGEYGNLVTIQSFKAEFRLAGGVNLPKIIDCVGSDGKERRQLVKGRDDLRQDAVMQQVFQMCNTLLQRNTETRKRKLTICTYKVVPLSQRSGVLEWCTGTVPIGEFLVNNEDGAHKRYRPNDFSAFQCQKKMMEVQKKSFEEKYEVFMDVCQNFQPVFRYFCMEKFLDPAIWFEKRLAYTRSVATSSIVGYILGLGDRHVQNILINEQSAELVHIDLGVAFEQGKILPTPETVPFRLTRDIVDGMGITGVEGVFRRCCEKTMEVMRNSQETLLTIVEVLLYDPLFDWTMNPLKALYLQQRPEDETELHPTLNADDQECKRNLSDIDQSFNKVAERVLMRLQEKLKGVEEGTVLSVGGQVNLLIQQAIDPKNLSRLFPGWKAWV
row,SMILES,IC50 [nM]
1,"CN1C(=O)C2(CCC2)c2c1cnc1ccc(-c3cnc(N4CCS(=N)(=O)CC4)c(NS(=O)(=O)c4ccccc4)c3)cc21 (racemic) [Example 138, rac-N-(2-(1-Imino-1-oxido-1λ^6-thiomorpholino)-5-(3′-methyl-2′-oxo-2′,3′-dihydrospiro[cyclobutane-1,1′-pyrrolo[2,3-c]quinolin]-8′-yl)pyridin-3-yl)benzenesulfonamide hydrochloride]",> 100
2,CN(C)CCCOc1ncc(-c2ccc3ncc4c(c3c2)C2(CCCC2)C(=O)N4C)cc1NC(=O)c1ccccc1 [Example 7],> 100
3,"COc1ncc(-c2ccc3ncc4c(c3c2)C2(CC2)C(=O)N4Cc2cn[nH]c2)cc1NS(=O)(=O)c1ccccc1 [Example 11, N-(5-(3′-((1H-Pyrazol-4-yl)methyl)-2′-oxo-2′,3′-dihydrospiro[cyclopropane-1,1′-pyrrolo[2,3-c]quinolin]-8′-yl)-2-methoxypyridin-3-yl) benzenesulfonamide]",> 100
4,"CN1C(=O)C2(CC2)c2c1cnc1ccc(-c3cnc(Cl)c(C(C)(C)O)c3)cc21 [Example 28, 8′-(6-Chloro-5-(2-hydroxypropan-2-yl)pyridin-3-yl)-3′-methylspiro[cyclopropane-1,1′-pyrrolo[2,3-c]quinolin]-2′(3′-H)-one]",> 100
5,"CC(C)Nc1cc(-c2ccc3ncc4c(c3c2)C2(CC2)C(=O)N4C)cnc1OCCCN(C)C [Example 34, 8′-(6-(3-(Dimethylamino)propoxy)-5-(isopropylamino)pyridin-3-yl)-3′-methylspiro[cyclopropane-1,1′-pyrrolo[2,3-c]quinolin]-2′(3′-H)-one]",> 100
6,COc1ncc(-c2ccc3ncc4c(c3c2)C2(CC2)C(=O)N4C)cc1S(=O)(=O)c1ccccc1 [Example 36],> 100
7,CN1C(=O)C2(CC2)c2c1cnc1ccc(-c3ccc4[nH]c(=O)ccc4c3)cc21 [Example 40],> 100
8,"CN1C(=O)C2(CC2)c2c1cnc1ccc(-c3ccc4nc(Cl)ccc4c3)cc21 [Example 41, 8′-(2-Chloroquinolin-6-yl)-3′-methylspiro [cyclopropane-1,1′-pyrrolo [2,3-c]quinolin]-2′(3′-H)-one]",> 100
9,"CN1C(=O)C2(CC2)c2c1cnc1ccc(-c3cccc4[nH]ncc34)cc21 [Example 50, 8′-(1H-indazol-4-yl)-3′-methylspiro[cyclopropane-1,1′-pyrrolo[2,3-c]quinolin]-2′(3′-H)-one]",> 100
10,"CN(C)CCCOc1ncc(-c2ccc3ncc4c(c3c2)C2(CC2)C(=O)N4C)cc1Cl [Example 55, 8′-(5-Chloro-6-(3-(dimethylamino)propoxy)pyridin-3-yl)-3 methylspiro[cyclopropane-1,1′-pyrrolo[2,3-c]quinolin]-2′(3′-H)-one]",> 100
11,"CN1C(=O)C2(CC2)c2c1cnc1ccc(-c3cnc(OCCCN4CCCC4)c(NS(=O)(=O)C4CC4)c3)cc21 [Example 60, N-(5-(3-Methyl-2′-oxo-2′,3′-dihydrospiro [cyclopropane-1,1′-pyrrolo[2,3-c]quinolin]-8′-yl)-2-(3-(pyrrolidin-1-yl)propoxy)pyridin-3-yl) cyclopropanesulfonamide]",1 to 100

# Other lines, results leading:
row,IC50 [nM],SMILES
1,> 100,"COc1ncc(-c2ccc3ncc4c(c3c2)C2(CCC2)C(=O)N4C)cc1S(=N)(=O)c1ccccc1 (racemic) [Example 151, rac-8′-(6-Methoxy-5-(phenylsulfonimidoyl)pyridin-3-yl)-3′-methylspiro[cyclobutane-1,1′-pyrrolo[2,3-c]quinolin]-2′(3′H)-one]"
2,> 100,"COc1ncc(-c2ccc3ncc(Nc4ccn(C)n4)c(=O)n3c2)cc1NS(=O)(=O)c1ccccc1 [Example 16, N-(2-Methoxy-5-(3-((1-methyl-1H-pyrazol-3-yl)amino)-4-oxo-4H-pyrido[1,2-a]pyrimidin-7-yl)pyridin-3-yl)benzenesulfonamide]"
3,> 100,"COc1ncc(-c2ccc3ncc4c(c3c2)C2(CC2)C(=O)N4CC2COC2)cc1NS(=O)(=O)c1ccccc1 [Example 17, N-(2-Methoxy-5-(3 (oxetan-3-ylmethyl)-2′-oxo-2′,3′-dihydrospiro[cyclopropane-1,1′-pyrrolo[2,3-c]quinolin]-8′-yl)pyridin-3-yl)benzenesulfonamide]"
4,1 to 100,"COc1ncc(-c2ccc3ncc4c(c3c2)C2(CC2)C(=O)N4C)cc1NS(=O)(=O)c1cccc(C(C)O)c1 (stereo not drawn) [Example 18, 3-(1-Hydroxyethyl)-N-(2-methoxy-5-(3′-methyl-2′-oxo-2′,3′-dihydrospiro[cyclopropane-1,1′-pyrrolo[2,3-c]quinolin]-8′-yl)pyridin-3-yl)benzenesulfonamide]"
5,> 100,"CN1C(=O)C2(CC2)c2c1cnc1ccc(-c3cnc4ccccc4c3)cc21 [Example 20, 3′-Methyl-8′-(quinolin-3-yl)spiro[cyclopropane-1,1′-pyrrolo[2,3-c]quinolin]-2′(3′-H)-one]"
6,> 100,"CN1C(=O)C(C)(c2ccncc2)c2c1cnc1ccc(-c3cnc(Cl)c(NS(=O)(=O)c4ccccc4)c3)cc21 (stereo not drawn) [Example 23, N-(2-Chloro-5-(1,3-dimethyl-2-oxo-1-(pyridin-4-yl)-2′,3′-dihydro-1H-pyrrolo[2,3-c]quinolin-8-yl)pyridin-3-yl)benzenesulfonamide]"
7,> 100,"CN1C(=O)C2(CC2)c2c1cnc1ccc(-c3cncc(C(C)(C)O)c3)cc21 [Example 25, 8′-(5-(2-Hydroxypropan-2-yl)pyridin-3-yl)-3 methylspiro[cyclopropane-1,1′-pyrrolo[2,3-c]quinolin]-2′(3′-H)-one]"
8,> 100,"COc1ncc(-c2ccc3ncc4c(c3c2)C2(CC2)C(=O)N4C)cc1C(C)(C)O [Example 26, 8′-(5-(2-Hydroxypropan-2-yl)-6-methoxypyridin-3-yl)-3′-methylspiro [cyclopropane-1,1′-pyrrolo[2,3-c]quinolin]-2′(3′-H)-one]"
9,> 100,"COc1ncc(-c2ccc3ncc4c(c3c2)C2(CC2)C(=O)N4CCC#N)cc1NS(=O)(=O)c1ccccc1 [Example 27, N-(5-(3′-(2-Cyanoethyl)-2′-oxo-2′,3′-dihydrospiro[cyclopropane-1,1′-pyrrolo[2,3-c]quinolin]-8′-yl)-2-methoxypyridin-3-yl)benzenesulfonamide]"
10,> 100,"CC(C)N1C(=O)C2(CC2)c2c1cnc1ccc(-c3cnc(OCCCN(C)C)c(NS(=O)(=O)c4ccccc4)c3)cc21 [Example 31, N-(2-(3-(Dimethylamino)propoxy)-5-(3′-isopropyl-2′-oxo-2′,3′-dihydrospiro [cyclopropane-1,1′-pyrrolo[2,3-c]quinolin]-8′-yl)pyridin-3-yl) benzenesulfonamide]"
11,> 100,"CC(C)Oc1cc(-c2ccc3ncc4c(c3c2)C2(CC2)C(=O)N4C)cnc1OCCCN(C)C [Example 38, 8′-(6-(3-(Dimethylamino)propoxy)-5-isopropoxypyridin-3-yl)-3′-methylspiro[cyclopropane-1,1′-pyrrolo[2,3-c]quinolin]-2′(3′-H)-one]"
12,> 100,"CN1C(=O)C2(CC2)c2c1cnc1ccc(-c3ccc4nccnc4c3)cc21 [Example 39, 3′-Methyl-8′-(quinoxalin-6-yl)spiro[cyclopropane-1,1′-pyrrolo[2,3-c]quinolin]-2′(3′-H)-one]"
13,> 100,"COc1ccc2cc(-c3ccc4ncc5c(c4c3)C3(CC3)C(=O)N5C)ccc2n1 [Example 44, 8′-(2-Methoxyquinolin-6-yl)-3′-methylspiro [cyclopropane-1,1′-pyrrolo[2,3-c]quinolin]-2′(3′-H)-one]"
14,> 100,"CN1C(=O)C2(CC2)c2c1cnc1ccc(-c3ccc4c(ccc(=O)n4C)c3)cc21 [Example 45, 3′-Methyl-8′-(1-methyl-2-oxo-1,2-dihydroquinolin-6-yl)spiro[cyclopropane-1,1′-pyrrolo[2,3-c]quinolin]-2′(3′-H)-one]"
15,> 100,"CN1C(=O)C2(CC2)c2c1cnc1ccc(-c3cncnc3)cc21 [Example 51, 3′-Methyl-8′-(pyrimidin-5-yl)spiro[cyclopropane-1,1′-pyrrolo [2,3-c]quinolin]-2′(3′-H)-one]"
16,> 100,"CN(C)CCCOc1ncc(-c2ccc3ncc4c(c3c2)C2(CC2)C(=O)N4C)cc1C(N)=O [Example 52, 2-(3-(Dimethylamino)propoxy)-5-(3′-methyl-2′-oxo-2′,3′-dihydrospiro[cyclopropane-1,1′-pyrrolo[2,3-c]quinolin]-8′-yl)nicotinamide]"
17,> 100,"CN(C)CCCOc1ncc(-c2ccc3ncc4c(c3c2)C2(CC2)C(=O)N4C)cc1-c1ccccc1 [Example 72, 8′-(6-(3-(Dimethylamino)propoxy)-5-phenylpyridin-3-yl)-3′-methylspiro[cyclopropane-1,1′-pyrrolo[2,3-c]quinolin]-2′(3′-H)-one]"
18,> 100,"CN(C)CCCOc1ncc(-c2ccc3ncc4c(c3c2)N(C)C2(CC2)C(=O)N4C)cc1NS(=O)(=O)c1ccccc1 [Example 74, N-(5-(1′,4′-Dimethyl-3′-oxo-34′-dihydro-1′H-spiro[cyclopropane-1,2′-pyrazino[2,3-c]quinolin]-9′-yl)-2-(3-(dimethylamino)propoxy)pyridin-3-yl) benzenesulfonamide]"

# Same assay, conditions: pKAP1 in etoposide-treated MCF-7 cells
row,IC50 [nM],SMILES
1,> 100,"CN1C(=O)C2(CCC2)c2c1cnc1ccc(-c3cnc(N4CCC(C)(N5CCCCC5)C4)c(NS(C)(=O)=O)c3)cc21 (racemic) [Example 353, (rac)-N-(5-(3′-Methyl-2′-oxo-2′,3′-dihydrospiro[cyclobutane-1,1′-pyrrolo[2,3-c]quinolin]-8′-yl)-2-(3-methyl-3-(piperidin-1-yl)pyrrolidin-1-yl)pyridin-3-yl)methanesulfonamide hydrochloride]"
